Experimental data from ChEMBL document CHEMBL4842364 (J Med Chem, 2021).

Experiments:
[1] = AUC(0 to 24 hrs) in mouse at 60 mg/kg, po; format: ADME, organism-based; parameters: time < 24 hr, route oral, dose 60 mg/kg; details: in vivo
[2] = AUC(0 to 24 hrs) in rat at 60 mg/kg, po; format: ADME, organism-based; parameters: time < 24 hr, route oral, dose 60 mg/kg; details: in vivo
[3] = target: Serine/threonine-protein kinase PLK2 (Homo sapiens, UniProt Q9NYY3); test: Inhibition of PLK2 (unknown origin) at 1 uM relative to control
NCI-H23 = test: Antiproliferative activity against human NCI-H23 cells assessed as reduction in cell viability after 4 days by CellTiter-Glo assay; details: Homo sapiens, NCI-H23, 96 h
[4] = Plasma protein binding in mouse; format: ADME, cell-free; details: read-out: PPB (converted)
[5] = Octanol/buffer distribution coefficient, logD of the compound at pH 7.4; format: physicochemical
[6] = target: Serine/threonine-protein kinase PLK3 (Homo sapiens, UniProt Q9H4B4); test: Inhibition of PLK3 (unknown origin) at 1 uM relative to control
[7] = Intrinsic clearance in mouse microsomes; format: ADME, Microsome
Wee1-like protein kinase = Wee1-like protein kinase (Homo sapiens, UniProt P30291)
Description: Displacement of Alexa Fluor labelled kinase tracer178 from WEE1 (unknown origin) incubated for 60 mins by FRET assay

[8] = target: T1, Mitogen-activated protein kinase kinase kinase 19 (Homo sapiens) (UniProt Q56UN5); test: Inhibition of YSK4 (unknown origin) at 1 uM relative to control
T1 sequence (whole entry): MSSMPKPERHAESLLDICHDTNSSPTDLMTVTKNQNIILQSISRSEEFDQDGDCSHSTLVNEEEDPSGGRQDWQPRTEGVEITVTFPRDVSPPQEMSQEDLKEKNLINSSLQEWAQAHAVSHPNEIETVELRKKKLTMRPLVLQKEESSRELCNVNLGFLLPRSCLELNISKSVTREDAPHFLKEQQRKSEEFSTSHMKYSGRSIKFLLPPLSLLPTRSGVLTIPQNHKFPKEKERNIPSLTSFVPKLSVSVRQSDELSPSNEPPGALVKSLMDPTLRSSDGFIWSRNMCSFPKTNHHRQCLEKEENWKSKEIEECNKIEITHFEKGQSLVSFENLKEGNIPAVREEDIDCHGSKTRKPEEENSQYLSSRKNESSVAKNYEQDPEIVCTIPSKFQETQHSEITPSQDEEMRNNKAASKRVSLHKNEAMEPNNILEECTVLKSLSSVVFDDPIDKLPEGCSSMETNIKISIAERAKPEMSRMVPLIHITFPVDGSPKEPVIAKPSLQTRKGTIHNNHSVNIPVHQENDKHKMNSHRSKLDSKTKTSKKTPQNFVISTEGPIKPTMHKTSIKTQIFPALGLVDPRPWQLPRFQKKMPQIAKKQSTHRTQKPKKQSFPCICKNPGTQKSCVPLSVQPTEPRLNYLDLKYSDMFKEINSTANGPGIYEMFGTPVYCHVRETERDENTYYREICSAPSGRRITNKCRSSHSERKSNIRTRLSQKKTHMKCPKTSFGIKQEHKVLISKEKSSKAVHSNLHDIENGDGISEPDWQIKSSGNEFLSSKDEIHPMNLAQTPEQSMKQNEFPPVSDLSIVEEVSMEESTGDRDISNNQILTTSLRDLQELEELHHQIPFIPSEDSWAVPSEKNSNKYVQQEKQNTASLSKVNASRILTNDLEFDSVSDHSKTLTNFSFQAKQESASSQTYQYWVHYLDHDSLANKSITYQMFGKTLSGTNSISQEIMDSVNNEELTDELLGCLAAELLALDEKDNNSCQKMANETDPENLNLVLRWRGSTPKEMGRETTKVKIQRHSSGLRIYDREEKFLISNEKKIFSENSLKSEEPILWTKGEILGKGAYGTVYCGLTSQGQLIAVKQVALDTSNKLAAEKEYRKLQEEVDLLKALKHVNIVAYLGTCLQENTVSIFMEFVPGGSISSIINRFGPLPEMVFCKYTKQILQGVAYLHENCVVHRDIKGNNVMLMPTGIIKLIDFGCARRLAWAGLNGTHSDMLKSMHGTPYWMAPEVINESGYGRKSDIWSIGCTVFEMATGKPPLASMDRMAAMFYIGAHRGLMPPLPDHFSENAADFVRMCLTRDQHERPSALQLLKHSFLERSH

[9] = target: T2, Cyclin-G-associated kinase (Homo sapiens) (UniProt O14976); test: Inhibition of GAK (unknown origin) at 1 uM relative to control
T2 sequence (whole entry): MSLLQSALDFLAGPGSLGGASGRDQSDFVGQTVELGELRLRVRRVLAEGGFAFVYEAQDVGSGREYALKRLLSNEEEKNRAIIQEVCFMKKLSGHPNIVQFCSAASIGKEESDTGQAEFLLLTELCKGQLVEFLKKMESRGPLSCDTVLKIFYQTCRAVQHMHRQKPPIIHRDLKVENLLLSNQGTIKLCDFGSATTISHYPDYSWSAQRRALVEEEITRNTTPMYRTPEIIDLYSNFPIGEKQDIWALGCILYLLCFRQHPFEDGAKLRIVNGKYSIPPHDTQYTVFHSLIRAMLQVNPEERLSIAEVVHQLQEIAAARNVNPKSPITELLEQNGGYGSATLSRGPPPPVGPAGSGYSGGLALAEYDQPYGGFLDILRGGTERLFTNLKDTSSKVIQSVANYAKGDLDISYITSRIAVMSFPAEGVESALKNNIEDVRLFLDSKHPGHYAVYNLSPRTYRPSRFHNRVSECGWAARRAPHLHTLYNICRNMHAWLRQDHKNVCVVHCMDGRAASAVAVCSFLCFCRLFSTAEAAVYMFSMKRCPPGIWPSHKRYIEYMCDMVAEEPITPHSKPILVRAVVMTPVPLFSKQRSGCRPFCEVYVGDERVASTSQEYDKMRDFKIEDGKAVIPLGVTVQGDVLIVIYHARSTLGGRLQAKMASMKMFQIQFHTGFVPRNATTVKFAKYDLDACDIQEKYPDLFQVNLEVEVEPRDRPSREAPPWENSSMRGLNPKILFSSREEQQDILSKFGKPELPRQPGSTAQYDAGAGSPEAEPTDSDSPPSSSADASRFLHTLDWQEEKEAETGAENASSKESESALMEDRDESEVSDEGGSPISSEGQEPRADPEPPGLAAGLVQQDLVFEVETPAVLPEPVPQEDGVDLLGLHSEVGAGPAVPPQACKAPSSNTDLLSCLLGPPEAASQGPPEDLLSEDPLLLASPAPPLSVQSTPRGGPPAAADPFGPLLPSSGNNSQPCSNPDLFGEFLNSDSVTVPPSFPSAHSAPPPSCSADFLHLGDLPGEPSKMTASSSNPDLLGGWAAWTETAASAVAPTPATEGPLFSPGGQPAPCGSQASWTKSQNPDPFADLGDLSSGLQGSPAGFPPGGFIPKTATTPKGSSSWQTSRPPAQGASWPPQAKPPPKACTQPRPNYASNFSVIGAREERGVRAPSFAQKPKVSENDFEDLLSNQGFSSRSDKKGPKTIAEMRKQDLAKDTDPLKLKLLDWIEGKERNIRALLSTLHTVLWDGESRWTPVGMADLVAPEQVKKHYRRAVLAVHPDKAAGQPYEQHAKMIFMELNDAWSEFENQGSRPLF

[10] = Intrinsic clearance in human microsomes; format: ADME, Microsome
[11] = Plasma protein binding in human; format: ADME, cell-free; details: read-out: PPB (converted)
[12] = target: Epidermal growth factor receptor (Homo sapiens) (UniProt P00533); test: Inhibition of EGFR (unknown origin) at 1 uM relative to control
Epidermal growth factor receptor (Homo sapiens), sequence (P00533 whole entry): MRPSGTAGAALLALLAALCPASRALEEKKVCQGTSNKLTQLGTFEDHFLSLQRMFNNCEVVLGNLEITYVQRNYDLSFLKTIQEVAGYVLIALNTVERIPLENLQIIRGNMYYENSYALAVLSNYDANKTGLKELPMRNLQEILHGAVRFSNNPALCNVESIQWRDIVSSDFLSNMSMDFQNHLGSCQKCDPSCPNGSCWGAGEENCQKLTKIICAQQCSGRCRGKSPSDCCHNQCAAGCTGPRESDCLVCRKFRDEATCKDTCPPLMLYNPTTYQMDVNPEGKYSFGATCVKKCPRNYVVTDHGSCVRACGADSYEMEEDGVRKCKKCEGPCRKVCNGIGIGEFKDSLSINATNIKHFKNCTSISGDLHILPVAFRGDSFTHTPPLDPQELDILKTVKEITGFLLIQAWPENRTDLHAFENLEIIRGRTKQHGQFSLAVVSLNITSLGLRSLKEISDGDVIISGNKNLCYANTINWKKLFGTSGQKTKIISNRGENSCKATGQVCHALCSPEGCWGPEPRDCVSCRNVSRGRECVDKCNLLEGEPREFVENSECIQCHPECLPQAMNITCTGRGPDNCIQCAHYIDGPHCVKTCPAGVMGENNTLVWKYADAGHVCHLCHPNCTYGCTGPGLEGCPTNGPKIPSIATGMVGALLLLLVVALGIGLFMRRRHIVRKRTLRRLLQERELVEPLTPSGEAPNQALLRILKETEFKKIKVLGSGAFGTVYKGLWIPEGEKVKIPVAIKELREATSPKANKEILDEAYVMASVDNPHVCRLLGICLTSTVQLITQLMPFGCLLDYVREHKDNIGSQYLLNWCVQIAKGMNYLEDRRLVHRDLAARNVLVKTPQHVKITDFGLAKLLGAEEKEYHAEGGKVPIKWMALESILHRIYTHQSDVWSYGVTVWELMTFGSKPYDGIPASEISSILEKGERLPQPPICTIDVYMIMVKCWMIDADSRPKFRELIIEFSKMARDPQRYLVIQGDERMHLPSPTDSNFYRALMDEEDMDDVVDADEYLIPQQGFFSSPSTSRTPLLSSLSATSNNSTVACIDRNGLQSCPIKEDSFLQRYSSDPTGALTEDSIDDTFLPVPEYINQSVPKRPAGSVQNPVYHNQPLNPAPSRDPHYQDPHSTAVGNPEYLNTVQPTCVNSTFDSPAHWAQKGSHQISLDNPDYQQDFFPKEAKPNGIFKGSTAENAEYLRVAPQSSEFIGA

Serine/threonine-protein kinase PLK2, sequence (Q9NYY3 whole entry, looked up): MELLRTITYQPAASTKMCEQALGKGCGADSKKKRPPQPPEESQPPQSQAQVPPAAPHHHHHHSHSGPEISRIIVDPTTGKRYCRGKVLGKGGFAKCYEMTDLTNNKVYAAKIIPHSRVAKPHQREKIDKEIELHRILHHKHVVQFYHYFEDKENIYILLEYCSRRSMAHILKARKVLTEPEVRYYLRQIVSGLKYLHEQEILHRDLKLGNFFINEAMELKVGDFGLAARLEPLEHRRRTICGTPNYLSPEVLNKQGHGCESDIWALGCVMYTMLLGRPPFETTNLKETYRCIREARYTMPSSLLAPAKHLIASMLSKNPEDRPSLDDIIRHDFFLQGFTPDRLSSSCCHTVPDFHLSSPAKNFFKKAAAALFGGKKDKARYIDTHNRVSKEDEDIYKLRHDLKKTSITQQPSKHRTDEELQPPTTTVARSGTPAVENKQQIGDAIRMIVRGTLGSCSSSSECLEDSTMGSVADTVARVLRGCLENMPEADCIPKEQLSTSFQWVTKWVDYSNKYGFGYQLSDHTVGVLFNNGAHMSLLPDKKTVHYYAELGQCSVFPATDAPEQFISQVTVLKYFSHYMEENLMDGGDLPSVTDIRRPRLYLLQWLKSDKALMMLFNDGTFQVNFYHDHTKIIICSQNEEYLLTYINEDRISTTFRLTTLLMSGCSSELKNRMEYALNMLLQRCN
Wee1-like protein kinase, sequence (P30291 whole entry): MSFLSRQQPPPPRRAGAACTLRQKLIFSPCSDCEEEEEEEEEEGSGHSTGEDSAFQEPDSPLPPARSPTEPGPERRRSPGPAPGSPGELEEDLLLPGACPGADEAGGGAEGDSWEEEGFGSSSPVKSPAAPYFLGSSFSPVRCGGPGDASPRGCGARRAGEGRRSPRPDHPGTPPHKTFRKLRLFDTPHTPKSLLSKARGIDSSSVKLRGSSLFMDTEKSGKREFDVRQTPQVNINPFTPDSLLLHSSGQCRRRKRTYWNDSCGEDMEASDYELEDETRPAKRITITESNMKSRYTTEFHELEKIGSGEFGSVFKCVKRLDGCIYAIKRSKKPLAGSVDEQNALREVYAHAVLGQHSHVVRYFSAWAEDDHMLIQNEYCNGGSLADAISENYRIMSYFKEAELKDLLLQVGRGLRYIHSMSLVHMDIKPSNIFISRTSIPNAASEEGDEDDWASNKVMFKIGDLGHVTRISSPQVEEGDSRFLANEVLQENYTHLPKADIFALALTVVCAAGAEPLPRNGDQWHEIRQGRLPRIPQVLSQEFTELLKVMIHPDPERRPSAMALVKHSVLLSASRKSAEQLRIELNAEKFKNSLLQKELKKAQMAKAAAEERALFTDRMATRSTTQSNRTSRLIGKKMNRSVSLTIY
Serine/threonine-protein kinase PLK3, sequence (Q9H4B4 whole entry, looked up): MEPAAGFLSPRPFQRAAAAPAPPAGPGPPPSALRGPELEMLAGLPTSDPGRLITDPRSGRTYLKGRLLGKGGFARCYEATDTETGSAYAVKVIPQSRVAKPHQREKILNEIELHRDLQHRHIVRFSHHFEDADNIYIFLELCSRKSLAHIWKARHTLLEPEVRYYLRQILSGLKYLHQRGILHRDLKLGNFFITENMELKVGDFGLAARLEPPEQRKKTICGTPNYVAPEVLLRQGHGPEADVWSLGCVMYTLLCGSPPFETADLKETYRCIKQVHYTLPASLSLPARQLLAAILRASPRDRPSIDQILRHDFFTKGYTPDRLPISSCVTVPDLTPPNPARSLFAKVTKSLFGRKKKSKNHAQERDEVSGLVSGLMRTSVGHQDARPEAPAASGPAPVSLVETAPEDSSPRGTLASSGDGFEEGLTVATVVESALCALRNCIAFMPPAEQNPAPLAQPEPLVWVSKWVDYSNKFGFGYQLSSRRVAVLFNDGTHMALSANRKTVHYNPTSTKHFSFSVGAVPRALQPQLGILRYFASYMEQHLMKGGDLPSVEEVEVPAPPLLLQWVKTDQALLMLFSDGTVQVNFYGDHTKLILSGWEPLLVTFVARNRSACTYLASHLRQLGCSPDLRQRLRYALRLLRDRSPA

AUC(0-t) at 24 h [1]: 27 µM·h
AUC(0-t) at 24 h [2]: 35 µM·h
inhibition [3]: > 90%
IC50 (NCI-H23): 0.317 µM
fraction unbound [4]: 0.27
logD [5]: 2
inhibition [6]: 75%
CLint scaled [7]: < 2.28 L/h/kg
IC50 (Wee1-like protein kinase): 0.0048 µM
inhibition [8]: > 90%
inhibition [9]: 75%
CLint scaled [10]: 1.2 L/h/kg
fraction unbound [11]: 0.47
inhibition [12]: > 90%
Compound: C=CCn1c(=O)c2cnc(Nc3ccc(N4CCN(C)CC4)cc3)nc2n1-c1ccc2c(n1)[C@](C)(O)CC2
